From PubChem BioAssay (NCI) come the findings set out here.

Holding throughout (assay): NCI tumour cell line growth inhibition, 48 h
For assay [1], the system named is PC-3 prostate.
Assay [2] concerns SK-MEL-5 melanoma.
For assay [3], the system named is SF-295 CNS.
For assay [4], the system named is OVCAR-3 ovarian.
Assay [5] relates to HCT-15 colon.
Assay [6] deals with LOX IMVI melanoma.
Assay [7] relates to U251 CNS.
In assay [8] the test system is 786-0 renal.
Assay [9] relates to RPMI-8226 leukemia.
In assay [10] the test system is HCC-2998 colon.
Assay [11] deals with HOP-92 NSCLC.
For assay [12], the system named is BT-549 breast.
The test system of assay [13] is A498 renal.

Each structure is given as a SMILES string.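 Step 1: Grow cells in 96-well plates. Step 2: Expose to compound for 48 hours at 5 concentrations. Step 3: Interpolate endpoints linearly; if unreached, use highest concentration. TGI denotes the concentration required for complete inhibition of growth.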

Turning to `CO/N=C(/C)c1cccc(Nc2nc3ccccc3c3[nH]c4ccccc4c23)c1`, the TGI was 22.3 µM in assay [1]; 18.2 µM in [2]; 14.6 µM in assay [3]; 20.6 µM in [4]; 23.6 µM in [5]; 25 µM in assay [6]. Further, the TGI was determined as 30.9 µM in assay [7] and 21.5 µM in assay [8].
With `O=[N+]([O-])c1ccc2c(c1)N([O-])C1(CCCCC1)[N+]2=O`, the TGI in assay [1] was determined as 31.2 µM; in assay [2], 28.9 µM; in assay [3], 34 µM; in assay [4] it was 51 µM; in assay [5], 39.4 µM; in [9], 65 µM. Besides, the TGI in [6] was 42.2 µM; in assay [10] it was 32.8 µM; in assay [7], 32.3 µM; in assay [11] it was 29.1 µM; in [8] it was 24.6 µM.
Consider `CCN1CCC(O)(c2ccc(Oc3ccc(F)cc3)cc2)C(C(=O)c2ccc(Oc3ccc(F)cc3)cc2)C1` (stereo unspecified), for which the TGI in assay [1] turned out to be 26.4 µM; in assay [3] it was 29.3 µM; in assay [4], 28.6 µM; in [5], 23.7 µM; in [9], 8.03 µM; in [6] it was 25.9 µM. In addition, the TGI came to 23.6 µM in assay [10]; 30.1 µM in assay [7]; 29.1 µM in [12]; 24.4 µM in assay [11]; 26.4 µM in assay [8].
`CCOC(=O)c1[nH]c(-c2[nH]c(-c3[nH]c(-c4[nH]c(C(=O)OCC)c(C)c4C(=O)OCC)c(C(=O)OCC)c3C)c(C)c2C(=O)OCC)c(C(=O)OCC)c1C`: the TGI in assay [1], in assay [2], in [3], in assay [4], in [5] and in [9] was greater than 100 µM in each case. Besides, the TGI in assay [6], in assay [10], in assay [7], in [8] and in [13] was greater than 100 µM in each case.
As to `CN(C)c1ccc(C=NCC2CCCN3CCCCC23)cc1` (stereo unspecified), the TGI in [1], in assay [2], in assay [3], in assay [4], in assay [5] and in assay [6] was greater than 100 µM throughout. Also, the TGI in [10], in assay [12] and in [8] was greater than 100 µM throughout.
For the molecule `c1cc2c(s1)-c1sccc1C21OCCO1`, the TGI in assay [2], in [3], in [4], in [5], in [9] and in assay [6] was greater than 100 µM each time. Besides, the TGI in assay [10], in assay [7], in assay [12] and in assay [8] was greater than 100 µM in each case.
For the molecule `O=S(=O)(O)c1cc(N=Nc2c(O)ccc3ccccc23)ccc1/C=C/c1ccc(N=Nc2c(O)ccc3ccccc23)cc1S(=O)(=O)O`, the TGI in assay [1], in assay [2], in assay [3], in assay [4], in [5] and in [9] was greater than 100 µM in each case. The TGI in assay [7], in assay [12], in assay [11] and in [8] was greater than 100 µM in each case.
On to `c1ccc2c(c1)c1c(n2CCOCCN2CCCC2)CCCC1`, for which the TGI is 66 µM in assay [1]; 30.3 µM in assay [2]; greater than 100 µM in [3]; greater than 100 µM in [4]; 31.2 µM in [5]; 42.2 µM in assay [9]. The TGI in assay [6] was determined as 33.9 µM; in assay [10], 30.2 µM; in assay [7], 25.8 µM; in [11], 86.9 µM; in assay [8], 29.6 µM.
Consider `O=C(OC1C2OC(=O)c3cc(O)c(O)c(O)c3Oc3cc4c(c(O)c3O)-c3c(cc(O)c(O)c3O)C(=O)OCC3OC(O)C(OC(=O)c5cc(O)c(O)c(O)c5Oc5cc6c(c(O)c5O)-c5c(cc(O)c(O)c5O)C(=O)OC1C(COC6=O)OC2O)C(OC(=O)c1cc(O)c(O)c(O)c1)C3OC4=O)c1cc(O)c(O)c(O)c1` (stereo unspecified), for which the TGI in assay [1] was 87.7 µM; in assay [2] it was greater than 100 µM; in [3] it was 57.5 µM; in assay [4] it was greater than 100 µM; in assay [9] it was 50.1 µM; in [6] it was 59.7 µM. Besides, the TGI in [11] stood at 58.5 µM; in assay [8] it was 47.1 µM.
Regarding `CN1CN(c2ccccc2)C2(CCN(CC(C)(c3ccc(F)cc3)C3OCCCO3)CC2)C1=O` (stereo unspecified), the TGI in assay [1] was 34.7 µM; in assay [2], 30.1 µM; in assay [3], 33.4 µM; in assay [4], 24.5 µM; in assay [5] it was 33.9 µM; in [9], 27.3 µM. Also, the TGI in [6] came out at 31.8 µM; in assay [7], 26.6 µM; in assay [12] it was 19.2 µM; in [8], 43.1 µM.
As to `CCCC(CCC(N)=O)(CCC(N)=O)[N+](=O)[O-]`, the TGI in assay [1], in assay [2], in assay [3], in assay [5], in assay [9] and in [7] was greater than 100 µM throughout. For the same molecule, the TGI in assay [12], in assay [11] and in assay [8] was greater than 100 µM throughout.
Consider `Cc1ccc(NC=O)c(-c2c(N)[nH]c(=S)[nH]c2=O)c1`, for which the TGI in assay [2], in assay [3], in [4], in assay [5], in assay [9] and in assay [6] was greater than 100 µM in each case. Moreover, the TGI in [12], in assay [11], in [8] and in assay [13] was greater than 100 µM each time.
Regarding `O=C(O)CCC(=O)c1ccc2c(c1)C(C(=O)O)CC2` (stereo unspecified), the TGI in assay [1], in [2], in assay [3], in assay [4], in assay [5] and in assay [9] was greater than 100 µM each time. For the same molecule, the TGI in assay [6], in assay [10], in assay [7], in assay [11], in [8] and in assay [13] was greater than 100 µM throughout.
With `O=C(/C=C/c1ccccc1)CSc1ncn[nH]1`, the TGI in assay [1], in assay [2], in assay [3], in assay [4], in assay [5] and in assay [9] was greater than 100 µM throughout. Further, the TGI in [10], in assay [7], in [12] and in assay [8] was greater than 100 µM throughout.
With `COC(=O)c1ccc(/C=C2\Oc3ccccc3C2=O)cc1`, the TGI in assay [1], in assay [2], in assay [3], in assay [4], in [5] and in assay [9] was greater than 100 µM throughout. Besides, the TGI in [10], in assay [7], in [12] and in assay [8] was greater than 100 µM each time.
For the molecule `CCOC(=O)c1c(N=P(c2ccccc2)(c2ccccc2)c2ccccc2)nnc(-c2ccccc2)c1-c1ccccc1`, the TGI in assay [1], in [2], in assay [3], in [4], in assay [5] and in assay [6] was greater than 100 µM in each case. Besides, the TGI in assay [10] was greater than 100 µM; in [7] it was greater than 100 µM; in [11], greater than 100 µM; in assay [8] it was greater than 100 µM; in assay [13] it was 99.3 µM.
Regarding `CCOC(=O)c1nnsc1N/N=C\c1ccc([N+](=O)[O-])cc1`, the TGI in assay [1], in assay [2], in [3], in assay [4], in assay [5] and in assay [9] was greater than 100 µM in each case. Also, the TGI in assay [10], in assay [7], in assay [12] and in assay [8] was greater than 100 µM in each case.
In the case of `CCCCCCCCCCCCCCCCNC(=O)C(=O)/C=C(\O)c1ccc(C)cc1`, the TGI in assay [1], in [2], in assay [3], in assay [4], in assay [5] and in [9] was greater than 10 µM each time. Besides, the TGI in assay [6], in [10], in [7], in [8] and in assay [13] was greater than 10 µM in each case.
For the molecule `CS(=O)(=O)c1nc(-c2cc3c(c(S(C)(=O)=O)n2)CCCC3)cc2c1CCCCC2`, the TGI in assay [1], in [2], in assay [3], in assay [4], in assay [5] and in [9] was greater than 100 µM throughout. Moreover, the TGI in [7], in [12] and in [8] was greater than 100 µM each time.
